Data published in PMC3552814, “Elimination Rates of Dioxin Congeners in Former Chlorophenol Workers from Midland, Michigan” (Environmental Health Perspectives, 2012).
Like-named read-outs stand apart in the source and are kept apart here.

Tests used:
[1] = Serum lipid-adjusted dioxin congener concentrations in former chlorophenol workers, repeated blood sampling 2004–2005 and 2010; format: in vivo, human; conditions: for Mean percent change: change in concentration from 2004–2005 to 2010; for Concentration 2004–2005, Mean ± SD / Concentration 2010, Mean ± SD: serum, 56 Midland study participants
Description: Participant selection. The selection strategy called for drawing a stratified random sample of workers included in the previous 2004–2005 blood draw. […] We used the 95th percentile of age-specific U.S. population concentrations for each congener identified in the National Health and Nutrition Examination Survey (NHANES; [Centers for Disease Control and Prevention 2009]) to define the upper ends of the background ranges. Nine strata were formed based jointly on previous serum levels of TCDD (high, > 50 ppt; moderate, 10–50 ppt; and background, < 10 ppt), representing workers in predominantly TCP processes, and OCDD (high, > 5,000 ppt; moderate, 1,000–5,000 ppt; and background, < 1,000 ppt), representing those with experience in PCP processes. We attempted to enroll participants representing each of these strata. Invitations to participate were sent to our target sample of 72 workers who were selected based on these congener concentration criteria.
Questionnaire and data collection methods. We conducted the serum analyses in 2010 using the same protocol, procedures, and laboratory as in the 2004–2005 blood draw ([Collins et al. 2006]). The serum samples were tested for 7 polychlorinated dibenzo-p-dioxins (PCDDs), 10 polychlorinated dibenzofurans (PCDFs), and 15 polychlorinated biphenyls (PCBs). […] The study was conducted pursuant to approval and oversight by the Dow Human Subjects Review Board in Midland, Michigan. All study participants gave informed consent.
On the day of examination in the fall of 2010, participants donated blood and completed the same questionnaire originally administered during the 2004–2005 sampling effort ([Collins et al. 2006]). The questionnaire addressed dietary and smoking habits, work history, and recent changes in weight. Height, weight, and blood pressure were also measured. Diagnosis of chloracne during occupational exposure was extracted from workplace medical records; the criteria for chloracne diagnosis were defined previously by [Bond et al. (1990)].

[2] = Elimination half-lives from serial serum samples, first-order one-compartment model; format: in vivo; conditions: human, serum (lipid-adjusted), other: occupational exposure, 56 participants
Description: Elimination rates. Changes in measured concentrations of persistent compounds such as PCDDs and PCDFs reflect not only intrinsic elimination rates but also any ongoing intakes of the compounds and changes in the volume of distribution, in this case, the volume of body lipids ([Bartell 2012]; [Ritter et al. 2009], [2011]). If current body concentrations are high relative to steady-state concentrations associated with current background intake rates, apparent elimination rates will approximate intrinsic elimination rates ([Bartell 2012]; [van der Molen et al. 1998]). If, on the other hand, background intakes are high compared with current body concentrations, the estimated apparent elimination rate will be lower than the intrinsic rates. Robust data regarding ongoing congener intake rates were not available, so the elimination rates were first calculated based on net rate of change of the congeners, which reflects both intrinsic elimination rates and unmeasured intake rates, termed “apparent” elimination rates.
We calculated apparent elimination rates in two ways: based on changes in concentration, or based on changes in estimated body amounts. For the former approach, concentrations of congener i in 2005 and 2010 (Ci,2005 and Ci,2010, respectively) and time between sampling dates (Δt), were used to estimate the elimination rate (ki):
Concentrations of lipophilic compounds may change in response to changes in the volume of distribution (increase or decrease in amount of body fat), even in the absence of any elimination or additional exposure ([Charlier et al. 2002]; [Chevrier et al. 2000]; [Hue et al. 2006]; [Imbeault et al. 2001]; [Pelletier et al. 2002]; [Walford et al. 1999]). Thus, we also estimated the rate of change in estimated whole body mass of each congener. For the approach based on changes in estimated mass of dioxins in the body, the congener concentrations in 2005 and 2010 were replaced by the estimated amounts, A, of congener i in the body:
where PBF is percent body fat estimated using an age-, sex-, and body mass index (BMI)-specific formula, which has been validated in adults over a range of ages including those of the participants in this study ([Deurenberg et al. 1991]), BW is body weight in kilograms, and Ci is the serum lipid–adjusted concentration of congener i. This approach assumes that the compound is distributed solely in body lipid. The resulting amount, Ai, calculated for each sampling time and congener was used in Equation 1 in place of concentration for calculating the apparent whole-body mass-based elimination rate.
Elimination half-lives (t1/2) corresponding to the estimated elimination rates, (k) were calculated for some comparisons with previous literature:
Inclusion of plausible background exposures. […] Changes in concentration or estimated mass of compound in the body reflect the net effect of both elimination and any ongoing exposures between sampling time points. Under a first-order model, the amount of compound in the body in 2010 (A2010) is a function of both the intrinsic elimination rate, kint, and the ongoing exposure rate between sampling time points:
where D is the yearly dose rate in nanograms per year, and A2005 is the starting amount in 2005. As described by [Ritter et al. (2011)], intrinsic elimination rates can be estimated if ongoing exposure levels are known or can be estimated.

[3] = parameters: method as in Patterson et al. 2009; conditions: persons ≥ 60 years of age, ref Patterson et al. 2009, cited from earlier work; for NHANES (2003–2004) P50: 50th percentile, LODs variable; for NHANES (2003–2004) P95: 95th percentile
[4] = parameters: method as in van den Berg et al. 2006; conditions: WHO toxic equivalency factor; ref van den Berg et al. 2006; cited from earlier work
[5] = cited from earlier work; for Half-life of elimination, Rohde et al. 1999 (mean) / Half-life of elimination, Flesch-Janys et al. 1996 (median): from change in concentration; for Half-life of elimination, Rohde et al. 1999 (mean): n = 6, ages 41–73 years, ref Rohde et al. 1999; for Half-life of elimination, Flesch-Janys et al. 1996 (median): n = 26 to 48, mean age 48.7 years at first sampling, ref Flesch-Janys et al. 1996
[6] = based on change in estimated mass of the congener in the body, read-out: Elimination half-lives [median (P25–P75)], Apparent, mass based (converted)
[7] = based on change in serum lipid concentration, read-out: Elimination half-lives [median (P25–P75)], Apparent, concentration based (converted)
[8] = change in body mass after accounting for plausible background intake (Table 3), read-out: Elimination half-lives [median (P25–P75)], Estimated intrinsic (converted)

SMILES	Mean percent change [1]	Concentration 2004–2005, Mean ± SD [1]	Concentration 2010, Mean ± SD [1]	half-life [2, 6]	half-life [2, 7]	half-life [2, 8]	NHANES (2003–2004) P50 [3]	NHANES (2003–2004) P95 [3]	TEF [4]	Half-life of elimination, Rohde et al. 1999 (mean) [5]	Half-life of elimination, Flesch-Janys et al. 1996 (median) [5]	2004–2005 median concentration ([1]; present study)	Median concentration at first sampling time point ([5]; ref Flesch-Janys et al. (1996))
Clc1cc2c(c(Cl)c1Cl)Oc1cc(Cl)c(Cl)c(Cl)c1O2 [Congener 16HxCDD, 1,2,3,6,7,8-hexachlorodibenzo-p-dioxin]	–31%	136.6 ± 99.9 pg/g lipid	94.3 ± 70.8 pg/g lipid	4020 days	3690 days	3290 days	47.3 pg/g lipid	104 pg/g lipid	0.1	11.6 years	13.1 years	–	–
Clc1cc2c(c(Cl)c1Cl)Oc1c(Cl)c(Cl)c(Cl)c(Cl)c1O2 [HpCDD, 1,2,3,4,7,8,9-heptachlorodibenzo-p-dioxin]	–46%	159.9 ± 161.8 pg/g lipid	87.1 ± 83.3 pg/g lipid	2780 days	2560 days	2450 days	–	–	0.01	4.3 years	3.7 years	88.6 pg/g lipid	641 pg/g lipid
Clc1cc2c(cc1Cl)Oc1c(Cl)c(Cl)c(Cl)c(Cl)c1O2 [Congener 14HxCDD, 1,2,3,4,7,8-hexachlorodibenzo-p-dioxin]	–34%	16.0 ± 11.9 pg/g lipid	10.5 ± 7.9 pg/g lipid	3000 days	2960 days	2560 days	–	15.1 pg/g lipid	0.1	13.9 years	8.4 years	–	–
Clc1cc2c(c(Cl)c1Cl)Oc1c(cc(Cl)c(Cl)c1Cl)O2 [Congener 19HxCDD, 1,2,3,7,8,9-hexachlorodibenzo-p-dioxin]	–42%	19.4 ± 14.5 pg/g lipid	11.3 ± 9.8 pg/g lipid	2480 days	2260 days	2300 days	–	16.2 pg/g lipid	0.1	7.7 years	4.9 years	–	–
Clc1cc2c(cc1Cl)Oc1cc(Cl)c(Cl)cc1O2 [TCDD, 2,3,7,8-tetrachlorodibenzo-p-dioxin]	–39%	21.1 ± 30.0 pg/g lipid	12.9 ± 19.6 pg/g lipid	2560 days	2370 days	2370 days	–	7.9 pg/g lipid	1	8.7 years	7.2 years	–	–
Clc1c(Cl)c(Cl)c2c(c1Cl)Oc1c(Cl)c(Cl)c(Cl)c(Cl)c1O2 [OCDD, octachlorodibenzo-p-dioxin]	–41%	1919.6 ± 2121.0 pg/g lipid	1124.7 ± 1232.0 pg/g lipid	3030 days	2850 days	2670 days	370 pg/g lipid	1,180 pg/g lipid	0.0003	8.7 years	6.7 years	–	–
Clc1cccc2c1Oc1c(Cl)c(Cl)c(Cl)c(Cl)c1O2 [PeCDD, pentachlorodibenzo-p-dioxin]	–28%	19.7 ± 11.3 pg/g lipid	14.2 ± 8.6 pg/g lipid	4240 days	3910 days	3910 days	8.0 pg/g lipid	17.7 pg/g lipid	1	13.9 years	15.7 years	–	–
